Source: patent US8198307B2, “Imidazole derivatives having aryl piperidine substituent, method for preparation thereof and pharmaceutical compositions containing same” (Korea Research Institute of Chemical Technology, priority 2007, dated 2012)

Molecular target: T1, MCH R1 (melanine-concentrating hormone receptor-1) (Homo sapiens, UniProt Q99705)
T1 construct: purchased Euroscreen, Gosselies, Belgium
Experiment: Inhibitory effects on MCH R1 binding (Eu-MCH time-resolved fluorescence binding assay)
Details: not given
Procedure: First, MCH R1 (melanine-concentrating hormone receptor-1; Euroscreen, Gosselies, Belgium), 1 μM Europium-labeled melanine-concentrating hormone (Eu-MCH, PerkinElmer, Turku, Finland) and 1 mM melanine-concentrating hormone (MCH, #070-47, Phoenix, Belmont Calif., USA) were kept at 4° C. for ready use. 1 μM Eu-MCH and 1 mM MCH were diluted with an experimental solution (25 mM HEPES pH 7.4, 5 mM MgCl2, 1 mM CaCl2 and 0.5% (w/w) BSA) to 8 nM (final reaction concentration: 2 nM) and 2 μM (final reaction concentration: 0.5 μM), respectively. The compounds prepared in the Examples (“Test compounds”) were dissolved in the experimental solution in concentration of 4 nM to 40 μM (final reaction concentration: 1 nM to 10 μM). MCH R1 (200 assays/vial) was homogeneously dispersed in the experimental solution.
Then, 100 μl/well of the following reaction mixture was added to the wells of a microplate (Multiwell 96 well filter plates PN5020, Pall Co., Ann Arbor, Mich., USA) equipped with a filter paper, with an 8-channel pipette (multi 8-channel, Eppendorf, Hamburg, Germany). Specifically, to the wells of a non-specific binding control group, 25 μl of Eu-MCH, 50 μl of MCH R1 and 25 μl of MCH were added. Further, 25 μl of the experimental solution supplemented with 10% (w/w) of DMSO, 25 μl of Eu-MCH and 50 μl of MCH R1 were added to the wells of a total binding control group, while 25 μl of the test compounds, 25 μl Eu-MCH and 50 μl of MCH R1 were added to the wells of an experimental group. Subsequently, the microplate was shaken gently for 15 seconds and kept at room temperature for 90 minutes to allow the reaction to take place. Then, the plate was washed with a microplate washer (EMBLA, Molecular Devices) by washing three times with 300 μl of a washing solution (25 mM HEPES pH 7.4, 5 mM MgCl2, 1 mM CaCl2) to remove the residual unreacted Eu-MCH. Moisture was removed from the bottom of the wells and 150 μl of dissociation solution (DELFIA Enhancement solution, PerkinElmer, Turku, Finland) was added to each well, followed by keeping the plate at room temperature for 2 to 4 hours. Subsequently, time-resolved fluorescence (TRF) values were measured with a multilabel counter (Victor2, PerkinElmer, Turku, Finland) (emission wave length: 615 nm, excitation wave length: 340 nm). The inhibition rate based on the time-resolved fluorescence data was calculated using the following Equation (I). Inhibition rate of time-resolved fluorescence (%)=[(Average TRF value of the total binding group−Time-resolved fluorescence value of the test compound)/(Average TRF value of the total binding group−Average TRF value of the non-specific binding group)]×100 (I)

T1 sequence (Q99705 whole entry, species assumed): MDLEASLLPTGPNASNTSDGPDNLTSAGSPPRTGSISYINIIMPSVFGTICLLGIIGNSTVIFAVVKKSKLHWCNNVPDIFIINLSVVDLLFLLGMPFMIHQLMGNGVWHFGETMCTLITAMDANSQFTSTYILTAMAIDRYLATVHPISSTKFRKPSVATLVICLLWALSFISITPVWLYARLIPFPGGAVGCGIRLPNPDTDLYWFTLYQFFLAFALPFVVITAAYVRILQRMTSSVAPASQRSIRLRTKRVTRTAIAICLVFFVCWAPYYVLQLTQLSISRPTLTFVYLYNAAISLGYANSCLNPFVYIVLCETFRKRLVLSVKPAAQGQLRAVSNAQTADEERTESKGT

| SMILES | IC50 |
| --- | --- |
| CC(=O)Nc1cccc(C2CCN(CCCn3c(-c4ccc(Cl)cc4)nc4ccc([N+](=O)[O-])cc43)CC2)c1 [Example 42, 2-(4-chlorophenyl)-1-{3-[4-(3-acetylaminophenyl)piperidin-1-yl]propyl}-6-nitro-1H-benzimidazole] | 111 nM |

Same assay, conditions: concentration inhibiting the binding of MCH (Eu-MCH, 2 nM) to MCH R1 by 50% in vitro; TRF readout; test range 1 nM to 10 μM; read-out: IC50

| SMILES | IC50 |
| --- | --- |
| CC(=O)Nc1cccc(C2CCN(CCCn3c(-c4ccc(Cl)cc4)nc4cc(C)cc(C)c43)CC2)c1 [Example 49, 2-(4-chlorophenyl)-1-{3-[4-(3-acetylaminophenyl)piperidin-1-yl]propyl}-5,7-dimethyl-1H-benzimidazole] | 197 nM |
| CC(=O)Nc1cccc(C2CCN(CCCn3c(-c4ccccc4)nc4ccc(Br)cc43)CC2)c1 [Example 43, 2-phenyl-1-{3-[4-(3-acetylaminophenyl)piperidin-1-yl]propyl}-6-bromo-1H-benzimidazole] | 3 nM |
| CC(=O)Nc1cccc(C2CCN(CCCn3c(-c4cccc(F)c4)nc4ccc(Cl)cc43)CC2)c1 [Example 34, 2-(3-fluorophenyl)-1-{3-[4-(3-acetylaminophenyl)piperidin-1-yl]propyl}-6-chloro-1H-benzimidazole] | 8 nM |
| COc1ccccc1-c1nc2ccccc2n1CCCN1CCC(c2cccc(NC(C)=O)c2)CC1 [Example 17, 2-(2-methoxyphenyl)-1-{3-[4-(3-acetylaminophenyl)piperidin-1-yl]propyl}-1H-benzimidazole] | 747 nM |
| CC(=O)Nc1cccc(C2CCN(CCCn3c(-c4cccc(Cl)c4)nc4cc(C)c(C)cc43)CC2)c1 [Example 38, 2-(3-chlorophenyl)-1-{3-[4-(3-acetylaminophenyl)piperidin-1-yl]propyl}-5,6-dimethyl-1H-benzimidazole] | 3 nM |
| COc1ccc2nc(-c3ccccc3)n(CCCN3CCC(c4cccc(NC(C)=O)c4)CC3)c2c1 [Example 27, 2-phenyl-1-{3-[4-(3-acetylaminophenyl)piperidin-1-yl]propyl}-6-methoxy-1H-benzimidazole] | 11 nM |
| COc1ccc(Cl)cc1-c1nc2cc(C)c(C)cc2n1CCCN1CCC(c2cccc(NC(C)=O)c2)CC1 [Example 87, 2-(5-chloro-2-methoxyphenyl)-1-{3-[4-(3-acetylaminophenyl)piperidin-1-yl]propyl}-5,6-dimethyl-1H-benzimidazole] | 70 nM |
| CCCCc1nc2cc(-c3ccc([N+](=O)[O-])cc3)c(C)nc2n1CCCN1CCC(c2cccc(NC(=O)C(C)C)c2)CC1 [Example 103, 2-butyl-5-methyl-6-(4-nitrophenyl)-3-{3-[4-(3-isobutyrylaminophenyl)piperidin-1-yl]propyl}-3H-imidazo[4,5-b]pyridine] | 20 nM |
| CCCCc1nc2cc(-c3ccccc3)c(C=O)nc2n1CCCN1CCC(c2cccc(NC(=O)C(C)C)c2)CC1 [Example 102, 2-butyl-5-formyl-6-phenyl-3-{3-[4-(3-isobutyrylaminophenyl)piperidin-1-yl]propyl}-3H-imidazo[4,5-b]pyridine] | 260 nM |
| CC(=O)Nc1cccc(C2CCN(CCCCn3c(-c4ccccc4)nc4ccccc43)CC2)c1 [Example 5, 2-phenyl-1-{4-[4-(3-acetylaminophenyl)piperidin-1-yl]butyl}-1H-benzimidazole] | 29 nM |
| CC(=O)Nc1cccc(C2CCN(CCCn3c(C)nc4cc(C)c(C)cc43)CC2)c1 [Example 89, 2-methyl-1-{3-[4-(3-acetylaminophenyl)piperidin-1-yl]propyl}-5,6-dimethyl-1H-benzimidazole] | 60 nM |
| CC(=O)Nc1cccc(C2CCN(CCCn3c(-c4cccc(C(N)=O)c4)nc4ccccc43)CC2)c1 [Example 62, 2-(3-carbamoylphenyl)-1-{3-[4-(3-acetylaminophenyl)piperidin-1-yl]propyl}-1H-benzimidazole] | 11 nM |
| CCCCc1nc2cc(-c3ccccn3)c(C)nc2n1CCCN1CCC(c2cccc(NC(C)=O)c2)CC1 [Example 97, 2-butyl-5-methyl-6-pyridin-2-yl-3-{3-[4-(3-acetylaminophenyl)piperidin-1-yl]propyl}-3H-imidazo[4,5-b]pyridine] | 70 nM |
| CC(=O)Nc1cccc(C2CCN(CCCn3c(-c4ccccc4F)nc4ccc(Cl)cc43)CC2)c1 [Example 33, 2-(2-fluorophenyl)-1-{3-[4-(3-acetylaminophenyl)piperidin-1-yl]propyl}-6-chloro-1H-benzimidazole] | 148 nM |
| CC(=O)Nc1cccc(C2CCN(CCCn3c(-c4ccccc4)nc4ccc(Cl)cc43)CC2)c1 [Example 29, 2-phenyl-1-{3-[4-(3-acetylaminophenyl)piperidin-1-yl]propyl}-6-chloro-1H-benzimidazole] | 10 nM |
| CC(=O)Nc1cccc(C2CCN(CCCn3c(-c4ccc(Br)o4)nc4cc(Cl)ccc43)CC2)c1 [Example 118, 5-chloro-2-(5-bromofuran-2-yl)-1-{3-[4-(3-acetamidophenyl)piperidin-1-yl]propyl}-1H-benzimidazole] | 20 nM |
| COc1ccc(-c2nc3ccccc3n2CCCN2CCC(c3cccc(NC(C)=O)c3)CC2)cc1 [Example 19, 2-(4-methoxyphenyl)-1-{3-[4-(3-acetylaminophenyl)piperidin-1-yl]propyl}-1H-benzimidazole] | 9 nM |
| CCCCc1nc2cc(Br)c(C)nc2n1CCCN1CCC(c2cccc(NC(=O)C(C)C)c2)CC1 [Example 98, 6-bromo-2-butyl-5-methyl-3-{3-[4-(3-isobutyrylaminophenyl)piperidin-1-yl]propyl}-3H-imidazo[4,5-b]pyridine] | 1 nM |
| CC(=O)Nc1cccc(C2CCN(CCCn3c(-c4ccc(C(F)(F)F)cc4)nc4ccccc43)CC2)c1 [Example 45, 2-(4-trifluoromethylphenyl)-1-{3-[4-(3-acetylaminophenyl)piperidin-1-yl]propyl}-1H-benzimidazole] | 3 nM |
| CC(=O)Nc1cccc(C2CCN(CCCn3c(-c4ccccc4I)nc4ccccc43)CC2)c1 [Example 14, 2-(2-iodophenyl)-1-{3-[4-(3-acetylaminophenyl)piperidin-1-yl]propyl}-1H-benzimidazole] | > 10000 nM |
| CC(=O)Nc1cccc(C2CCN(CCCn3c(-c4ccc(F)cc4)nc4ccccc43)CC2)c1 [Example 48, 2-(4-fluorophenyl)-1-{3-[4-(3-acetylaminophenyl)piperidin-1-yl]propyl}-1H-benzimidazole] | 56 nM |
| CC(=O)Nc1cccc(C2CCN(CCCn3c(-c4cccc([N+](=O)[O-])c4)nc4ccccc43)CC2)c1 [Example 55, 2-(3-nitrophenyl)-1-{3-[4-(3-acetylaminophenyl)piperidin-1-yl]propyl}-1H-benzimidazole] | 8 nM |
| CC(=O)Nc1cccc(C2CCN(CCCn3c(-c4ccccc4F)nc4ccccc43)CC2)c1 [Example 15, 2-(2-fluorophenyl)-1-{3-[4-(3-acetylaminophenyl)piperidin-1-yl]propyl}-1H-benzimidazole] | 10 nM |
| CC(=O)Nc1cccc(C2CCN(CCCn3c(-c4ccc(C#N)cc4)nc4ccccc43)CC2)c1 [Example 51, 2-(4-cyanophenyl)-1-{3-[4-(3-acetylaminophenyl)piperidin-1-yl]propyl}-1H-benzimidazole] | 16 nM |
| CC(=O)Nc1cccc(C2CCN(CCCn3c(-c4ccc(F)cc4)nc4ccc(Cl)cc43)CC2)c1 [Example 30, 2-(4-fluorophenyl)-1-{3-[4-(3-acetylaminophenyl)piperidin-1-yl]propyl}-6-chloro-1H-benzimidazole] | 13 nM |
| CC(=O)Nc1cccc(C2CCN(CCCn3c(-c4ccc(Cl)cc4)nc4ccc(Br)cc43)CC2)c1 [Example 36, 2-(4-chlorophenyl)-1-{3-[4-(3-acetylaminophenyl)piperidin-1-yl]propyl}-6-bromo-1H-benzimidazole] | 17 nM |
| CC(=O)Nc1cccc(C2CCN(CCCn3c(-c4cccs4)nc4ccccc43)CC2)c1 [Example 109, 2-(thiophen-2-yl)-1-{3-[4-(3-acetylaminophenyl)piperidin-1-yl]propyl}-1H-benzimidazole] | 15 nM |
| CC(=O)Nc1cccc(C2CCN(CCCn3c(-c4ccc(C)nc4)nc4ccccc43)CC2)c1 [Example 114, 2-(6-methylpyridin-3-yl)-1-{3-[4-(3-acetamidophenyl)piperidin-1-yl]propyl}-1H-benzimidazole] | 42 nM |
